Earlier results, collected in patent US5597804A, “N-sulfonylarginine keto-amide compounds” (Corvas International, Inc., priority 1993, dated 1997).

Key:
Settings in all cases: reported by Ocain et al.; read-out: inhibitor constant
cytosol aminopeptidase = molecular target: cytosol aminopeptidase
[1] = molecular target: T1, microsomal aminopeptidase (Sus scrofa, UniProt P15145)
T1 sequence (P15145 1-963): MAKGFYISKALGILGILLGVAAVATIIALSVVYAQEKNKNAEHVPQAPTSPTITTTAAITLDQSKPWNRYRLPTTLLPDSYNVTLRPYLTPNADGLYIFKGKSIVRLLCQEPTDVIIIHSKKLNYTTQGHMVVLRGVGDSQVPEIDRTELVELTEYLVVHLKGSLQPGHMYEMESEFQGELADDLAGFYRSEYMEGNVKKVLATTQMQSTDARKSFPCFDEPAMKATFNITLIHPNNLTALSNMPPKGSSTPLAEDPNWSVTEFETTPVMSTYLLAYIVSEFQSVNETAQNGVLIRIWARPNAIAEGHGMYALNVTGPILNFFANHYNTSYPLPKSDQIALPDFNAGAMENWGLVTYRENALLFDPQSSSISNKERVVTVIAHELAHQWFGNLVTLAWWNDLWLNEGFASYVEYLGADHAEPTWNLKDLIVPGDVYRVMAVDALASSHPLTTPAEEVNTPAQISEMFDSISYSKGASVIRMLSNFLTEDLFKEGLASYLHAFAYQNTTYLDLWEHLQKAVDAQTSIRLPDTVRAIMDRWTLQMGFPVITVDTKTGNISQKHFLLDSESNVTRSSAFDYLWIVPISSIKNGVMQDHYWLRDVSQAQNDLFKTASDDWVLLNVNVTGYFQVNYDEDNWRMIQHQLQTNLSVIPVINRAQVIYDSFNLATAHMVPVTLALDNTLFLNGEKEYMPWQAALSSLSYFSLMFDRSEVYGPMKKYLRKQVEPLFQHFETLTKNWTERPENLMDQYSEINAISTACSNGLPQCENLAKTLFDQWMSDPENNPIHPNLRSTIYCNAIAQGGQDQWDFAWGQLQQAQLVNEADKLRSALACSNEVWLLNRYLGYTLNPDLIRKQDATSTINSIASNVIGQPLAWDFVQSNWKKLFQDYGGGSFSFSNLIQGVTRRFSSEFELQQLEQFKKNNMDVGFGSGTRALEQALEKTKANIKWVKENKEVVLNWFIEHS

arginyl aminopeptidase = molecular target: arginyl aminopeptidase

SMILES: NC(=O)C(=O)C(N)Cc1ccccc1 (stereo not drawn) [3-Amino-2-oxo-4-phenylbutanoic acid amide]
- Ki (cytosol aminopeptidase): 1000 µM
- Ki [1]: 2500 µM
- Ki (arginyl aminopeptidase): 1500 µM
